Data from ChEMBL document CHEMBL4665854, “Backbone Cyclization Turns a Venom Peptide into a Stable and Equipotent Ligand at Both Muscle and Neuronal Nicotinic Receptors” (J Med Chem, 2020).
The source made the active and inactive calls. The rule behind the calls is not given here. Positions of bridges follow the written chain, without caps; N, C: chain ends. Residues, ends and D or L forms follow the SMILES beside them.

How the values were obtained:
[1] = system: Phrenic nerve-diaphragm muscle; test: Inhibition of muscle contraction in Swiss mouse isolated phrenic nerve hemidiaphragm muscle preparation assessed as reduction of 0.1 Hz stimulation-induced isometric twitch force incubated for 20 to 25 mins; format: functional, tissue-based
[2] = Half life in human serum at 30 uM by LC-MS analysis; format: ADME, cell-free
Danio rerio [3] = test: Induction of paralysis in adult Zebrafish assessed as induction of rapid flaccid skeletal muscle paralysis dosed via injection measured after 10 mins; format: functional, organism-based
[4] = system: Phrenic nerve-diaphragm muscle; test: Reduction in fading of train-of four repetitive stimulation pattern in Swiss mouse isolated phrenic nerve hemidiaphragm muscle preparation at 20 nM; format: functional, tissue-based
[5] = target: CHRNA1/CHRNB1/CHRNG/CHRND (Rattus norvegicus, UniProt P18916+P25108+P25109+P25110); test: Inhibition of rat (alpha1)2betagammadelta expressed in Xenopus laevis oocytes assessed as inhibition of acetylcholine-induced channel current response at -70 mV holding potential by two-electrode voltage-clamp assay; format: cell-based, Oocyte
CHRNA1/CHRNB1/CHRNG/CHRND, sequence (P25109 whole entry): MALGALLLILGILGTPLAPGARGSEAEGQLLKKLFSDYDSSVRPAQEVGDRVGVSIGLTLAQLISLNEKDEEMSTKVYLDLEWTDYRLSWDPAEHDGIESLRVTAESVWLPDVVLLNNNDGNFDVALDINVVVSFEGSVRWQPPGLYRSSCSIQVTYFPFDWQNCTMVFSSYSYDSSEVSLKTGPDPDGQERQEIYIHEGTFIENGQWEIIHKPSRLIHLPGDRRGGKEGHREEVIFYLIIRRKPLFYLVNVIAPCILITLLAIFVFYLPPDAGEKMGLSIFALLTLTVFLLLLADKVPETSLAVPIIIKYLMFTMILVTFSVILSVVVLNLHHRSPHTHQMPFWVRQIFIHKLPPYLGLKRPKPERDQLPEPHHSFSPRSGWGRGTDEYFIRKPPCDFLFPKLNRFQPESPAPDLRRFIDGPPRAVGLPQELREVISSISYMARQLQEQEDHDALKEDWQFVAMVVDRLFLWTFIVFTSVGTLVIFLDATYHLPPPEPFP
CHRNA1/CHRNB1/CHRNG/CHRND, sequence (P25108 whole entry): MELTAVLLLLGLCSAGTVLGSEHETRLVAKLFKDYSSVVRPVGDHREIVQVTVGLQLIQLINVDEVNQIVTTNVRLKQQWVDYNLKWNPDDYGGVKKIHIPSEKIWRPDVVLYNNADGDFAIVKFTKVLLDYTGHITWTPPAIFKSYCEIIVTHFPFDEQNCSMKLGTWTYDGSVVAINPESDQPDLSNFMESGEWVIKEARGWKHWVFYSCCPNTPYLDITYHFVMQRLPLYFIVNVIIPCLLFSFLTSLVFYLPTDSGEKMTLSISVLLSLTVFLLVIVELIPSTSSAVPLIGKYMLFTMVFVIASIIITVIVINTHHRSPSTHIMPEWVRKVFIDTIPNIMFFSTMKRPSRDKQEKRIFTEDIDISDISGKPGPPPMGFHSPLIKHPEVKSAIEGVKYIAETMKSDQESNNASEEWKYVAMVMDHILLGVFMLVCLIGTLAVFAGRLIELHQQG
CHRNA1/CHRNB1/CHRNG/CHRND, sequence (P25110 whole entry): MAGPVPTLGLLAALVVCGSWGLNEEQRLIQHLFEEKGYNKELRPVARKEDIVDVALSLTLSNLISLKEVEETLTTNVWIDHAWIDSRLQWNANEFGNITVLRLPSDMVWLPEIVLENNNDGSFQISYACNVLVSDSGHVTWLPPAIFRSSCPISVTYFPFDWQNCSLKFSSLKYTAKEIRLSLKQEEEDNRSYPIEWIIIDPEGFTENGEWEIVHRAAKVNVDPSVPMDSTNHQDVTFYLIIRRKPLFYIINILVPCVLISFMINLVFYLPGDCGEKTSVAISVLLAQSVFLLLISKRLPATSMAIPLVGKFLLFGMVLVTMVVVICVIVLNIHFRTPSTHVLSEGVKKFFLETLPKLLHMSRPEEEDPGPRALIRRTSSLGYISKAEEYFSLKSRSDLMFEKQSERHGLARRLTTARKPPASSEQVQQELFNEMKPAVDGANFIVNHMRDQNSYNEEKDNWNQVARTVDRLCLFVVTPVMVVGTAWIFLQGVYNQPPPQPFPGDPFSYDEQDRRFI
CHRNA1/CHRNB1/CHRNG/CHRND, sequence (P18916 whole entry): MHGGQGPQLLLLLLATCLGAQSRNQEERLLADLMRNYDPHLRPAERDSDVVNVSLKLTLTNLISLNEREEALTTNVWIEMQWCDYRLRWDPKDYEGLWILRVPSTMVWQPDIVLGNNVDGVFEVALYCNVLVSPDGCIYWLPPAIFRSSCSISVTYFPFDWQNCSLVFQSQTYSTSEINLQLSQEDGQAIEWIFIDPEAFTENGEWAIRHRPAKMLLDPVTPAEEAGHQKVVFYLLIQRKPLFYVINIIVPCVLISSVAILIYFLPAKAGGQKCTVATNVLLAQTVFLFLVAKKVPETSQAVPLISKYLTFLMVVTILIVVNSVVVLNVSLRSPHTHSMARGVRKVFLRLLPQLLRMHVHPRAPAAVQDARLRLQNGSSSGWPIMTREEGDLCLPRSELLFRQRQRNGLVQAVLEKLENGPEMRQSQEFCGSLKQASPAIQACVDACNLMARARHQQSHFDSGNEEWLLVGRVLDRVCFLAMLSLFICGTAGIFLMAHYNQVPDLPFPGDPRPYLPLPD

[6] = target: T1, CHRNA1/CHRNB1/CHRNG/CHRND (Rattus norvegicus) (UniProt P25109+P25108+P25110+P18916); test: Inhibition of rat (alpha1)2betagammadelta expressed in Xenopus laevis oocytes assessed as dissociation rate constant for inhibition of acetylcholine-induced channel current response at -70 mV holding potential by two-electrode voltage-clamp assay; format: cell-based; settings: Oocyte
Danio rerio [7] = species: Danio rerio; test: Induction of paralysis in Zebrafish assessed as inhibition of larvae movement movement at 100 uM added into the water and measured over 1 hr by larvae movement tracking analysis relative to control; format: functional
[8] = target: Neuronal acetylcholine receptor; alpha3/beta2 (Rattus norvegicus, UniProt P04757+P12390); test: Inhibition of rat alpha3beta2 expressed in Xenopus laevis oocytes assessed as inhibition of acetylcholine-induced channel current response at -70 mV holding potential by two-electrode voltage-clamp assay; format: cell-based, Oocyte
Neuronal acetylcholine receptor; alpha3/beta2, sequence (P04757 whole entry): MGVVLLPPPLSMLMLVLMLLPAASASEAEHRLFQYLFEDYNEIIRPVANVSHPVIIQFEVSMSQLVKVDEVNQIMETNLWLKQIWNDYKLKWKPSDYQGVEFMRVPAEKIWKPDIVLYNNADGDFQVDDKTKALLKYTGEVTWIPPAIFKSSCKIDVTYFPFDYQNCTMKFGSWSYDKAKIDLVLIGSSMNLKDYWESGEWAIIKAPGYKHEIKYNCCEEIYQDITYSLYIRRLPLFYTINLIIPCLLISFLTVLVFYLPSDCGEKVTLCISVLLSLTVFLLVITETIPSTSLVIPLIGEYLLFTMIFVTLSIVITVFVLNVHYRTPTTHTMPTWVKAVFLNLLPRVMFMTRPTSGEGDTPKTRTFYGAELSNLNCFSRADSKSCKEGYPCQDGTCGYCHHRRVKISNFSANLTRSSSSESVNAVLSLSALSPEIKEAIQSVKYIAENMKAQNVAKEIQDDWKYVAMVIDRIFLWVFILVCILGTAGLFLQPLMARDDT
Neuronal acetylcholine receptor; alpha3/beta2, sequence (P12390 whole entry): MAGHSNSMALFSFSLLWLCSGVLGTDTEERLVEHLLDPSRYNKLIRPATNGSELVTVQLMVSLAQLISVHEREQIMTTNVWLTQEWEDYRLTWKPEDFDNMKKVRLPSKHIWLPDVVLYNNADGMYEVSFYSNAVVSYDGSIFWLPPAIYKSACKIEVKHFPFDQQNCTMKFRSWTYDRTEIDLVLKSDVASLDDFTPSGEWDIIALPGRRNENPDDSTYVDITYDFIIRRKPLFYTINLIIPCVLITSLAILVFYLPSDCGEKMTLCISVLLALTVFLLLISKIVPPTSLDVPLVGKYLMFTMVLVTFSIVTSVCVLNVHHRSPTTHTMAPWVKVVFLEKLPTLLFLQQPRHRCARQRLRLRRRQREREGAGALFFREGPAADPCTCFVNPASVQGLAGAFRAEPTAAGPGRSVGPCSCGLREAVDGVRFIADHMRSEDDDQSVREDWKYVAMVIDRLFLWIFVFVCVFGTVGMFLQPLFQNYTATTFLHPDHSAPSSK

[9] = target: T2, Neuronal acetylcholine receptor; alpha3/beta2 (Rattus norvegicus) (UniProt P04757+P12390); test: Competitive inhibition of alpha-conotoxin MII binding to rat alpha3beta2 expressed in Xenopus laevis oocytes at 100 nM; format: cell-based; settings: Oocyte
[10] = target: Neuronal acetylcholine receptor; alpha2/beta2 (Rattus norvegicus) (UniProt P12389+P12390); test: Inhibition of rat alpha2beta2 expressed in Xenopus laevis oocytes assessed as acetylcholine-induced channel current response at 10 uM at -70 mV holding potential by two-electrode voltage-clamp assay relative to control; format: cell-based; parameters: scale not given: the % may be the effect or the level left; settings: Oocyte
[11] = target: Neuronal acetylcholine receptor; alpha2/beta4 (Rattus norvegicus) (UniProt P12389+P12392); test: Inhibition of rat alpha2beta4 expressed in Xenopus laevis oocytes assessed as acetylcholine-induced channel current response at 10 uM at -70 mV holding potential by two-electrode voltage-clamp assay relative to control; format: cell-based; parameters: scale not given: the % may be the effect or the level left; settings: Oocyte
[12] = target: Neuronal acetylcholine receptor; alpha4/beta2 (Rattus norvegicus) (UniProt P09483+P12390); test: Inhibition of rat alpha4beta2 expressed in Xenopus laevis oocytes assessed as acetylcholine-induced channel current response at 10 uM at -70 mV holding potential by two-electrode voltage-clamp assay relative to control; format: cell-based; parameters: scale not given: the % may be the effect or the level left; settings: Oocyte
[13] = system: Phrenic nerve-diaphragm muscle; test: (§1) Inhibition of muscle contraction in Swiss mouse isolated phrenic nerve hemidiaphragm muscle preparation assessed as reduction of peak amplitude of 0.1 Hz stimulation-induced nerve contraction at 16 nM incubated for 30 mins followed addition of 10 uM addition of 3,4-DAP for 27 mins by relative to control; format: functional, tissue-based; settings: time 57.0 min
[14] = target: T1, CHRNA1/CHRNB1/CHRNG/CHRND (Rattus norvegicus); test: Inhibition of fetal rat (alpha1)2beta1gammadelta expressed in Xenopus laevis oocytes assessed as dissociation rate constant for inhibition of acetylcholine-induced channel current response at 100 nM at -70 mV holding potential by two-electrode voltage-clamp assay; format: cell-based; settings: Oocyte
[15] = target: Neuronal acetylcholine receptor subunit alpha-7 (Homo sapiens) (UniProt P36544); test: Inhibition of human alpha7expressed in Xenopus laevis oocytes assessed as acetylcholine-induced channel current response at 10 uM at -70 mV holding potential by two-electrode voltage-clamp assay relative to control; format: cell-based; parameters: scale not given: the % may be the effect or the level left; settings: Oocyte
Neuronal acetylcholine receptor subunit alpha-7 (Homo sapiens), sequence (P36544 whole entry): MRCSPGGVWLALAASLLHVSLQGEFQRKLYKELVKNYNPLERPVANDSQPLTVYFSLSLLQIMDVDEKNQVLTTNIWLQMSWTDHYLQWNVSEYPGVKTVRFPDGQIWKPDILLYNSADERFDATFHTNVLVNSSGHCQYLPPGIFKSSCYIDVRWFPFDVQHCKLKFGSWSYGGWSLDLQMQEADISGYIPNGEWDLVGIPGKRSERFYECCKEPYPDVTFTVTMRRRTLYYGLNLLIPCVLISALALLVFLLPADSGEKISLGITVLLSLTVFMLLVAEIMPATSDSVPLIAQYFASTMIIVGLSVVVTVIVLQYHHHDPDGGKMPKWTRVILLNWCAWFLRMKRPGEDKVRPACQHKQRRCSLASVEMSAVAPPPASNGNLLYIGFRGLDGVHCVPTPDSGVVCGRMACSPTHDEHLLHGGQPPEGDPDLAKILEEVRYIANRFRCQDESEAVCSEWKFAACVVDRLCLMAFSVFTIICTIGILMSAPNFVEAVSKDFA

[16] = target: T2, Neuronal acetylcholine receptor; alpha3/beta2 (Rattus norvegicus); test: Inhibition of rat alpha3beta2 expressed in Xenopus laevis oocytes assessed as wash-out time needed for recovery of ACh-induced current responses at -70 mV holding potential by two-electrode voltage-clamp assay; format: cell-based; settings: Oocyte
[17] = target: Neuronal acetylcholine receptor; alpha9/alpha10 (Homo sapiens) (UniProt Q9UGM1+Q9GZZ6); test: Inhibition of human alpha9alpha10 expressed in Xenopus laevis oocytes assessed as acetylcholine-induced channel current response at 10 uM at -70 mV holding potential by two-electrode voltage-clamp assay relative to control; format: cell-based; parameters: scale not given: the % may be the effect or the level left; settings: Oocyte
[18] = target: Nicotinic acetylcholine receptor alpha-1/beta-1/delta/epsilon (Homo sapiens) (UniProt P02708+P11230+Q07001+Q04844); test: Inhibition of adult human (alpha1)2beta1epsilondelta expressed in Xenopus laevis oocytes assessed as dissociation rate constant for inhibition of acetylcholine-induced channel current response at 1 nM at -70 mV holding potential by two-electrode voltage-clamp assay relative to control; format: cell-based; settings: Oocyte
[19] = system: Phrenic nerve-diaphragm muscle; test: Inhibition of muscle contraction in Swiss mouse isolated phrenic nerve hemidiaphragm muscle preparation assessed as reduction of 0.1 Hz stimulation-induced isometric twitch force by measuring time required for 40% recovery of nerve-evoked muscle contraction; format: functional
[20] = system: Phrenic nerve-diaphragm muscle; test: Inhibition of muscle contraction in Swiss mouse isolated phrenic nerve hemidiaphragm muscle preparation assessed as reduction of peak amplitude of 0.1 Hz stimulation-induced nerve contraction at 16 nM incubated for 30 mins relative to control; format: functional; settings: 0.5 h
[21] = target: Nicotinic acetylcholine receptor alpha6/alpha3/beta2/beta3 (Rattus norvegicus, UniProt P04757+P12390+P12391+P43143); test: Inhibition of rat alpha6alpha3beta2beta3 expressed in Xenopus laevis oocytes assessed as inhibition of acetylcholine-induced channel current response at -70 mV holding potential by two-electrode voltage-clamp assay relative to control; format: cell-based, Oocyte
Nicotinic acetylcholine receptor alpha6/alpha3/beta2/beta3, sequence (P04757 whole entry): as the sequence (P04757 whole entry) above
Nicotinic acetylcholine receptor alpha6/alpha3/beta2/beta3, sequence (P12390 whole entry): as the sequence (P12390 whole entry) above
Nicotinic acetylcholine receptor alpha6/alpha3/beta2/beta3, sequence (P12391 whole entry): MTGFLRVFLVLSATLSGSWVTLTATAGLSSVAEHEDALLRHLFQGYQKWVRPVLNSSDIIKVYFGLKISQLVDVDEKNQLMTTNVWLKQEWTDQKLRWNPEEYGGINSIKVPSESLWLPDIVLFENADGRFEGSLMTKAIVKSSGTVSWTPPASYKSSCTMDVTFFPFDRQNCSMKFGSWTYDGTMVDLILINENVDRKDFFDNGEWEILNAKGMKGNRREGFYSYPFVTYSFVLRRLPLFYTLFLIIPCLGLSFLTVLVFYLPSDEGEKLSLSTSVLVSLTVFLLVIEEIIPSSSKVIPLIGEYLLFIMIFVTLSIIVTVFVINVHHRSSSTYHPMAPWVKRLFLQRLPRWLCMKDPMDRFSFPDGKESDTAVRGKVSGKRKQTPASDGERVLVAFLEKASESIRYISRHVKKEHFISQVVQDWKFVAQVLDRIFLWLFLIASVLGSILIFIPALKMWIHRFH
Nicotinic acetylcholine receptor alpha6/alpha3/beta2/beta3, sequence (P43143 whole entry): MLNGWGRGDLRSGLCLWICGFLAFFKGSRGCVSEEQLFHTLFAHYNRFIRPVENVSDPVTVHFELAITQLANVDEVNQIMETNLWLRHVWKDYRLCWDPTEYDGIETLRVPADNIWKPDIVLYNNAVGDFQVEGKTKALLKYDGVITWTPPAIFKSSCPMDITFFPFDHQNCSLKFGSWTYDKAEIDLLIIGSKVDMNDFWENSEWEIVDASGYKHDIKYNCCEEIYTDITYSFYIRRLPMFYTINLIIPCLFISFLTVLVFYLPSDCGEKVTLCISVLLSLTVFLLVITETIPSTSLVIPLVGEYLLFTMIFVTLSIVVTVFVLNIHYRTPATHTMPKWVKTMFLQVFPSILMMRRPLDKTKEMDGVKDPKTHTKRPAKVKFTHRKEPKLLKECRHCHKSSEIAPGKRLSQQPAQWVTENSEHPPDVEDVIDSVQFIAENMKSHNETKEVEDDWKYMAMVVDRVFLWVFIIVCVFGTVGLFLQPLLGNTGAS

[22] = target: Nicotinic acetylcholine receptor alpha-1/beta-1/delta/epsilon (Rattus norvegicus, UniProt P09660+P25108+P25109+P25110); test: Inhibition of rat alpha1beta1epsilondelta expressed in Xenopus laevis oocytes assessed as inhibition of acetylcholine-induced channel current response at -70 mV holding potential by two-electrode voltage-clamp assay relative to control; format: cell-based, Oocyte
[23] = system: Phrenic nerve-diaphragm muscle; test: as §1, with “twitch tension-time integrals” for “peak amplitude”; format: functional, tissue-based; settings: time 57.0 min
[24] = target: Neuronal acetylcholine receptor; alpha4/beta4 (Rattus norvegicus) (UniProt P09483+P12392); test: Inhibition of rat alpha4beta4 expressed in Xenopus laevis oocytes assessed as acetylcholine-induced channel current response at 10 uM at -70 mV holding potential by two-electrode voltage-clamp assay relative to control; format: cell-based; parameters: scale not given: the % may be the effect or the level left; settings: Oocyte
[25] = system: Phrenic nerve-diaphragm muscle; test: Induction of fading of train-of four repetitive stimulation pattern in Swiss mouse isolated phrenic nerve hemidiaphragm muscle preparation measured at 76% neuromuscular block; format: functional, tissue-based
[26] = target: Neuronal acetylcholine receptor; alpha3/beta4 (Rattus norvegicus) (UniProt P04757+P12392); test: Inhibition of rat alpha3beta4 expressed in Xenopus laevis oocytes assessed as acetylcholine-induced channel current response at 10 uM at -70 mV holding potential by two-electrode voltage-clamp assay relative to control; format: cell-based; parameters: scale not given: the % may be the effect or the level left; settings: Oocyte
[27] = system: Phrenic nerve-diaphragm muscle; test: Inhibition of muscle contraction in Swiss mouse isolated phrenic nerve hemidiaphragm muscle preparation assessed as reduction of 0.1 Hz stimulation-induced isometric twitch force by measuring time required to block 50% of nerve-evoked muscle contraction; format: functional
[28] = Mus musculus, Swiss, Phrenic nerve-diaphragm muscle

| Compound | half-life at 30 µM [2] | Activity (Danio rerio [3]) | Activity [4] | IC50 [5] | K [6] | inhibition in vivo at 100 µM (Danio rerio [7]) | IC50 [8] | IC50 [1, 28] | IC50 (Danio rerio [3]; Danio rerio, 10 min) | further results |
| --- | --- | --- | --- | --- | --- | --- | --- | --- | --- | --- |
| C[C@@H]1NC(=O)[C@@H]2CCCN2C(=O)[C@H](Cc2c[nH]cn2)NC(=O)[C@@H]2CSSC[C@@H](C(N)=O)NC(=O)[C@H](CO)NC(=O)[C@H](Cc3ccccc3)NC(=O)[C@H](Cc3c[nH]cn3)NC(=O)[C@H](CCCCN)NC(=O)CNC(=O)[C@H](CSSC[C@H](NC(=O)[C@H](CCCNC(=N)N)NC(=O)CNC(=O)[C@@H](N)CC(N)=O)C(=O)N2)NC1=O (H-NGRCCHPACGKHFSC-NH2; disulfide 4-9, 5-15) | 80 min | Dose-dependent effect | inactive |  |  |  |  |  |  | IC50 [1]: 8.98 nM; IC50 (Danio rerio [3]): 6.9 µM |
| C[C@@H]1NC(=O)[C@@H]2CSSC[C@@H]3NC(=O)[C@H](CSSC[C@H](NC(=O)[C@H](C)NC(=O)[C@@H]4CCCN4C(=O)[C@H](Cc4c[nH]cn4)NC3=O)C(=O)NCC(=O)N[C@@H](CCCCN)C(=O)N[C@@H](Cc3c[nH]cn3)C(=O)N[C@@H](Cc3ccccc3)C(=O)N[C@@H](CO)C(=O)N2)NC(=O)[C@H](CCCNC(=N)N)NC(=O)CNC(=O)[C@H](CC(N)=O)NC(=O)CNC1=O (cyclo(ACGKHFSCAGNGRCCHP); disulfide 2-14, 8-15) | 440 min | Dose-dependent effect | inactive | 7.54 nM | 0.126 min⁻¹ | 99.8% | 10.3 nM | 13.5 nM | 12.1 µM |  |
| C[C@@H]1NC(=O)CNC(=O)[C@@H]2CSSC[C@@H]3NC(=O)[C@H](CSSC[C@H](NC(=O)[C@H](C)NC(=O)[C@@H]4CCCN4C(=O)[C@H](Cc4c[nH]cn4)NC3=O)C(=O)NCC(=O)N[C@@H](CCCCN)C(=O)N[C@@H](Cc3c[nH]cn3)C(=O)N[C@@H](Cc3ccccc3)C(=O)N[C@@H](CO)C(=O)N2)NC(=O)[C@H](CCCNC(=N)N)NC(=O)CNC(=O)[C@H](CC(N)=O)NC(=O)CNC(=O)[C@H](C)NC1=O (cyclo(AAGNGRCCHPACGKHFSCG); disulfide 7-12, 8-18) | > 480 min | Dose-dependent effect | inactive | 8.64 nM | 0.066 min⁻¹ | 25.2% | 21.3 nM | 16.5 nM | 76.2 µM |  |
| C[C@@H]1NC(=O)[C@H](C)NC(=O)[C@@H]2CSSC[C@@H]3NC(=O)[C@H](CSSC[C@H](NC(=O)[C@H](C)NC(=O)[C@@H]4CCCN4C(=O)[C@H](Cc4c[nH]cn4)NC3=O)C(=O)NCC(=O)N[C@@H](CCCCN)C(=O)N[C@@H](Cc3c[nH]cn3)C(=O)N[C@@H](Cc3ccccc3)C(=O)N[C@@H](CO)C(=O)N2)NC(=O)[C@H](CCCNC(=N)N)NC(=O)CNC(=O)[C@H](CC(N)=O)NC(=O)CNC1=O (cyclo(AAGNGRCCHPACGKHFSC); disulfide 7-12, 8-18) | 320 min | Dose-dependent effect | inactive | 3.57 nM | 0.03 min⁻¹ | 20.5% | 1.3 nM | 8.7 nM | 57.9 µM | inhibition [9]: Active; Activity [10]: > 80%; Activity [11]: > 80%; Activity [12]: > 80%; inhibition [13]: inactive; K [14]: 0.03 min⁻¹; Activity [15]: 65%; TIME [16]: 0.5 h; Activity [17]: > 80%; K [18]: 0.013 min⁻¹; Time [19]: 32.6 min; inhibition at 0.016 µM [20]: 85%; IC50 [21]: 8.64 nM; IC50 [22]: 0.184 nM; inhibition [23]: inactive; Activity [24]: > 80%; Activity [25]: inactive; Activity [26]: > 80%; Time [27]: 19 min |
